# pIC50: −log10 of the molar value.
# Tests used:
# HER2 [1] = target: T1, HER2 (Homo sapiens, UniProt P04626); assay: Inhibition of the activity of human growth factor receptor (HER2) tyrosine kinase; type: biochemical; design: the tyrosine kinase domain of the human HER2 gene was cloned; made in house; host or cells: insect cell line SF-21 (recombinant insect virus vector); settings: HER2 receptor type tyrosine kinase; ELISA with HER3 substrate; read-out: Concentration of inhibiting HER2 (IC50)
# Source text: As enzyme standard, the tyrosine kinase domain of the human HER2 gene was cloned to prepare the recombinant gene of insect virus vector, with which the insect cell line SF-21 was infected to produce an enzyme protein (Guy P. M. et al., Journal of Biological Chemistry Vol. 267, pp.13851-13856, 1992). As substrate, the phosphorylated tyrosine domain of the HER3 protein was cloned to prepare the recombinant gene of plasmid vector with which Escherichia Coli strain JM109 was infected to give an enzyme protein (Sierke S. L. et al., Biochemistry Vol. 32, pp.10102-10108, 1993). The enzymatic reaction was performed by the enzyme-linked immunological method which consisted of fixing the substrate protein in wells of a 96-well microtiter plate, adding the enzyme into the wells and quantitating phosphorylated tyrosine, which was the reaction product, by use of the anti-phosphorylated tyrosine antibody (Cleaveland J. S. et al., Analytical Biochemistry Vol. 190, pp249-253, 1990).
# Target sequence in this assay (P04626 720-987 limits assumed): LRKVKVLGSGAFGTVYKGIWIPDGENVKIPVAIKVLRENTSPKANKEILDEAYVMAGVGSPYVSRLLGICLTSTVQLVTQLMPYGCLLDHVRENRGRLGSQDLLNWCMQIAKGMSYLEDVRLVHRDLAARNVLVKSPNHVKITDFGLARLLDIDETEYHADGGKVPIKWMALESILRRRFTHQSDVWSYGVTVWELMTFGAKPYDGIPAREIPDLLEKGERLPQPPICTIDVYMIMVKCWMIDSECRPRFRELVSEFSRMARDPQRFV
# MDA-MB-453 [2] = assay: In vitro inhibition of cell proliferation (1); type: cell-based; settings: Homo sapiens, 72 h; Breast cancer MDA-MB-453; 3 days; SRB
# Procedure: (§1) 100 μl (containing 2,000 cells) of a cell suspension of human breast cancer cell line MDA-MB-453 was seeded in each well of the 96-well microtiter plates. The cultures were incubated at 37° C. in a 5% carbon dioxide gas incubator. On the next day, 100 μl of the 2-fold serial dilution of each compound solution was added to each well and the mixtures were cultured for 3 days. The solution containing the compound was removed and the cells were washed with water. To the cells was added a 0.4% (W/V) dye SRB (dissolved in 1% acetic acid) solution to fix and stain the cell protein (Skehan P. et al., Journal of the National Cancer Institute Vol.82, pp.1107-1112, 1990). The dye solution was removed and the fixed and stained cell protein was washed. The protein-bound dye was extracted with 200 μl of 10 mM Tris buffer. The optical density of the extracted dye was determined at the wavelength of 540 nm to estimate the quantity of the cells in terms of the protein quantity. Designating the protein quantity in the control to which no compound solution was added as 100%, the proportion of the residual protein quantity in each treated group was calculated, and IC50, which was concentration of the compound required to inhibit the residual protein quantity to 50% the quantity of the control, was calculated.
# [3] = tested on: human epidermal carcinoma cell line A431; settings: Journal of Antibiotics, Vol.39, p.170, 1986; cited from earlier work
# HER2 [4] = target: T1, HER2; assay: Inhibition of phosphorylation of receptor tyrosine in human breast cancer cells (2), MCF-7, heregulin-stimulated; type: cell-based; design: Human breast cancer cell line MCF-7 was used; endogenous in cells; host or cells: MCF-7; settings: heregulin control = 100%, read-out: Phosphorylation of receptor tyrosine residue (%); for activity at 0.4 µM: MCF7, 0.4 μM; for activity at 1.6 µM: MCF7, 1.6 μM; for activity at 6.3 µM: MCF7, 6.3 μM; for activity at 25 µM: MCF7, 25 μM
# Procedure: Human breast cancer cell line MCF-7 was used. 1,000 μl of the cell suspension (250,000 cells) was seeded in each well of the 24-well plates. The culture were incubated at 37° C. in a 5% carbon dioxide gas incubator. On the next day, 100 μl of the 10-fold serial dilution of each compound solution was added to each well and, 2 hours later, 0.5 μg/ml of heregulin was added to it. After 5 minutes the extract solution was added to it to terminate the reaction, and the protein fraction was extracted. The protein was fractionated by the protein electrophoresis. The protein in the electrophoretic gel was transferred to a nylon filter. The filter was allowed to react with the phosphorylated tyrosine-specific antibody. The reaction product was fluorescence-labeled to expose a photofilm. The intensity of the exposure on the photofilm was quantitated by an image-analyzing apparatus. The proportion of the phosphorylation of HER2 tyrosine in the cells added with a compound solution of each concentration was calculated designating the phosphorylation of HER2 tyrosine in the heregulin-added cells as 100%.
# Target sequence in this assay (P04626 23-1255): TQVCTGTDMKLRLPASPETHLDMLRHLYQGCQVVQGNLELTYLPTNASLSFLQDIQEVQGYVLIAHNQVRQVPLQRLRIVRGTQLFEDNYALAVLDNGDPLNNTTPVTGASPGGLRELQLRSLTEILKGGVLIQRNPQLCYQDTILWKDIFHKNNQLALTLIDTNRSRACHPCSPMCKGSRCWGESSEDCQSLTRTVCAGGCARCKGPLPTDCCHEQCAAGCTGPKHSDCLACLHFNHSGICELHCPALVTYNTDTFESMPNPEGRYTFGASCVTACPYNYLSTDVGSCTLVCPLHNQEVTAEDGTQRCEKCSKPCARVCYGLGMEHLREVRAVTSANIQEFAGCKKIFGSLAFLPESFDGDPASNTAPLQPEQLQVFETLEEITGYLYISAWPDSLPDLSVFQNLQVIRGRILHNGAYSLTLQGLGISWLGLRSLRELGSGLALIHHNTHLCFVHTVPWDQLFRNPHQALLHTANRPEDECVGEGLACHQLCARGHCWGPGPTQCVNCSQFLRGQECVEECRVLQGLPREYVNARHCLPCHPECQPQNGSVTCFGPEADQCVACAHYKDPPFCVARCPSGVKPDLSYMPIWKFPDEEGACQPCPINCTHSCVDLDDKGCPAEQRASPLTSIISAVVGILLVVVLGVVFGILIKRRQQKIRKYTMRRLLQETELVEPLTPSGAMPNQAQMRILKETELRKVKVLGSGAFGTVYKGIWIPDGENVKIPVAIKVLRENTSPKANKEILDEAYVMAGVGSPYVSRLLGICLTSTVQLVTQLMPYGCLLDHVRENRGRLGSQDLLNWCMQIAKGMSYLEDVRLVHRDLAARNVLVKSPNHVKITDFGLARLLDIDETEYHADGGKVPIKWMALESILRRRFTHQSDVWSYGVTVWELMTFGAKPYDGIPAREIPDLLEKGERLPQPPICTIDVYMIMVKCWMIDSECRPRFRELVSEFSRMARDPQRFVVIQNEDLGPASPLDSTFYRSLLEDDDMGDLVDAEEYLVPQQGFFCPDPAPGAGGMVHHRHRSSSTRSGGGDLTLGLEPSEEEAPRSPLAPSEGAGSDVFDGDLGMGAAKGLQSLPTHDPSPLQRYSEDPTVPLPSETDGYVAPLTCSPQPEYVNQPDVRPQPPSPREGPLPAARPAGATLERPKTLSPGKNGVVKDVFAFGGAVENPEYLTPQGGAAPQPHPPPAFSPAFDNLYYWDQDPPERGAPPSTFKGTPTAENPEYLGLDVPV
# MRC5 = assay: Selective in vitro inhibition of breast cancer and prostate cancer cell growth; type: cell-based; settings: Homo sapiens, 72 h; Normal MRC5; 3 days; SRB; read-out: IC50, inhibition of cell proliferation
# Procedure: (§2) 100 μl (containing 2,000 cells) of a cell suspension of various human cancer cell lines shown in [Table 7] was seeded in each well of the 96-well microtiter plates. The cells were incubated at 37° C. in a 5% carbon dioxide gas incubator. Next day, 100 μl of a 2 fold serial dilution of a compound solution was added to each well. The cultures were incubated for 3 days. The solution containing the compound was removed and the cells were washed with water. To the cells was added a 0.4% (V/W) dye SRB (dissolved in 1% acetic acid) solution to fix and stain the cell protein. The dye solution was removed and the fixed and stained cell protein was washed. The protein-bound dye was extracted with 200 μl of 10 mM Tris buffer. The optical density of the extracted dye was determined at the wavelength of 540 nm to estimate the quantity of the cells in terms of the protein quantity. Designating the protein quantity in the control to which no compound solution was added as 100%, the proportion of the residual protein quantity in each treated group was calculated, and IC50, which was the concentration of the compound required to inhibit the residual protein quantity to 50% the quantity of the control, was calculated.
# LNCaP = assay: as above; type: cell-based; settings: Homo sapiens, 72 h; Prostate cancer LNCaP; 3 days; SRB; read-out: IC50, inhibition of cell proliferation
# Procedure: as §2
# PC3 = assay: as above; type: cell-based; settings: Homo sapiens, PC-3, 72 h; Prostate cancer PC3; 3 days; SRB; read-out: IC50, inhibition of cell proliferation
# Procedure: as §2
# MCF-7 = assay: as above; type: cell-based; settings: Homo sapiens, MCF7, 72 h; Breast cancer MCF-7; 3 days; SRB; read-out: IC50, inhibition of cell proliferation
# Procedure: as §2
# MDA-MB-453 [5] = assay: as above; type: cell-based; settings: Homo sapiens, 72 h; Breast cancer MDA-MB-453; 3 days; SRB; read-out: IC50, inhibition of cell proliferation
# Procedure: as §2
# MDA-MB-453 [6] = assay: In vitro inhibition of cell proliferation (2); type: cell-based; settings: Homo sapiens, 72 h; Breast cancer MDA-MB-453; 3 days; SRB
# Procedure: as §1
# [7] = tested on: human prostatic cancer cell line, LNCaP; assay: In vivo inhibition of prostate cancer (1); design: species or system male Balb/C-strain athymic nude mice; settings: for Tumor growth rate (%): oral, gained tumor volume vs control; for Inhibition of implanted tumor growth: LNCaP, athymic nude mice
# Procedure: 5,000,000 cells of human prostatic cancer cell line, LNCaP, were suspended in a gelmatrix solution and implanted subcutaneously at the breast in 8-week old male Balb/C-strain athymic nude mice (Friedman R. et al., Proceedings of the National Academy of Sciences of the U.S.A. Vol. 87, pp.6698-6702, 1990). 42 days (in the case of compound 72) or 57 days (in the case of compound 109) after the implantation, the diameters of tumors were measured. Five mice per group with similar tumor size were used for the experiment. Compounds 72 or 109 of the present invention was suspended in a 5% gum arabic solution (physiological saline) and administered orally twice daily in a dose of 60 mg/kg and 90 mg/kg body weight for 10 days. After the completion of the dosing, the diameters of tumor were measured. The tumor volume was calculated by the following formula: volume of tumor=longest diameter×shortest diameter×shortest diameter×1/2. The growth rate of tumors was obtained as the proportion of the gained tumor volume which was subtracted the initial volume from the final volume in the treated animals to the gained tumor volume which was subtracted the initial volume from the final volume in the control animals. The body weights of mice administered with compounds of the present invention were measured during the experiment to observe no decrease.
# [8] = tested on: human breast cancer cell line, MDA-MB-453; assay: In vivo mammary cancer inhibiting effect (2); design: species or system female Balb/C strain athymic nude mice; settings: oral, gained tumor volume vs control
# Procedure: 5,000,000 cells of human breast cancer cell line, MDA-MB-453, were suspended in a gelmatrix solution. The suspension was subcutaneously implanted at the breast in 7-week-old female Balb/C strain athymic nude mice (Friedman R. et al., Proceedings of the National Academy of Sciences of the U.S.A. Vol. 87, pp.6698-6702, 1990). Twelve days after the implantation, the diameters of tumors were determined. For the experiment were used 5 mice per group with similar tumor size. Compound 72 or 109 of the present invention was suspended in a 5% gum arabic solution (physiological saline) and administered orally twice daily in dose of 60 mg/kg or 90 mg/kg body weight for 10 days. On the day when the dosing was ended, the diameters of tumors were measured. Tumor volume was calculated by the following formula: volume of tumor=longest diameter×shortest diameter×shortest diameter×1/2. The growth rate of tumors was obtained as the proportion of the gained tumor volume which was substracted the initial volume from the final volume in the treated animals to the gained tumor volume which was substracted the initial volume from the final volume in the control animals. The body weights of mice administered with compounds of the present invention were measured during the experiment to observe no decrease.
# T-47D = assay: Selective in vitro inhibition of breast cancer and prostate cancer cell growth; type: cell-based; settings: Homo sapiens, T47D, 72 h; Breast cancer T-47D; 3 days; SRB; read-out: IC50, inhibition of cell proliferation
# Procedure: as §2
# [9] = tested on: human squamous cell carcinoma MH-85; settings: Cancer Research, Vol.51, p.4430, 1991; cited from earlier work
# [10] = 120 mg/kg/day, 60 mg/kg twice daily for 10 days
# [11] = 180 mg/kg/day, 90 mg/kg twice daily for 10 days
SMILES,pIC50 (HER2 [1]),pIC50 (MDA-MB-453 [2]),activity at 0.4 µM (HER2 [4]) [%],activity at 1.6 µM (HER2 [4]) [%],activity at 6.3 µM (HER2 [4]) [%],activity at 25 µM (HER2 [4]) [%],pIC50 (LNCaP),pIC50 (PC3),pIC50 (MCF-7),pIC50 (MDA-MB-453 [5]),pIC50 (MDA-MB-453 [6]),pIC50 (T-47D),Inhibition of proliferation [3],pIC50 (MRC5),"Tumor growth rate (%) [7, 10] [%]",Inhibition of implanted tumor growth [7],"Tumor growth rate (%) [8, 10] [%]","Tumor growth rate (%) [7, 11] [%]","Tumor growth rate (%) [8, 11] [%]",Antitumor activity in vivo [9]
O=CN/C=C/c1cc(O)ccc1O [erbstatin],,,,,,,,,,,,,inhibits proliferation of human epidermal carcinoma cell line A431,,,,,,,
"c1csc(-c2nc(COc3ccc(CCCn4ccnc4)cc3)cs2)c1 [Compound 94, 4-[4-[3-(1-imidazolyl)propyl]phenoxymethyl]-2-(2-thienyl)thiazole]",,,93,86,45,25,5.25,4.82,5.96,5.32,5.32,,,< 4.60,,,,,,
COc1cc2ncnc(Nc3cccc(Cl)c3)c2cc1OC [tyrphostin],,,,,,,,,,,,,,,,,,,,has antitumor activity

# Continued, in another order:
pIC50 (HER2 [1]),pIC50 (MDA-MB-453 [2]),activity at 0.4 µM (HER2 [4]) [%],activity at 1.6 µM (HER2 [4]) [%],activity at 6.3 µM (HER2 [4]) [%],activity at 25 µM (HER2 [4]) [%],pIC50 (LNCaP),pIC50 (PC3),pIC50 (MCF-7),pIC50 (MDA-MB-453 [5]),pIC50 (MDA-MB-453 [6]),pIC50 (T-47D),SMILES,Inhibition of proliferation [3],pIC50 (MRC5),"Tumor growth rate (%) [7, 10] [%]",Inhibition of implanted tumor growth [7],"Tumor growth rate (%) [8, 10] [%]","Tumor growth rate (%) [7, 11] [%]","Tumor growth rate (%) [8, 11] [%]",Antitumor activity in vivo [9]
4.17,6.18,,,,,,,,,,,"C(=C\c1nc(COc2ccc(CCCCn3cncn3)cc2)co1)/c1ccccc1 [Compound 2, 1-[4-[4-[2-[(E)-2-phenylethenyl]-4-oxazolylmethoxy]phenyl]butyl]-1,2,4-triazole]",,,,,,,,
,,92,89,43,31,4.96,4.80,6.72,5.60,5.60,,"Cc1ccc(-c2nc(COc3ccc(CCCn4ccnc4)cc3)co2)s1 [Compound 109, 4-[4-[3-(1-imidazolyl)propyl]phenoxymethyl]-2-(5-methyl-2-thienyl)oxazole]",,< 4.60,28,inhibiting tumor growth of hormone dependent prostate cancer LNCaP,35,,,
,,96,48,19,7,5.10,5.02,6.21,5.77,5.77,5.46,"c1csc(-c2nc(COc3ccc(CCCn4ccnc4)cc3)co2)c1 [Compound 72, 4-[4-[3-(1-imidazolyl)propyl]phenoxymethyl]-2-(2-thienyl)oxazole]",,< 4.60,91,inhibiting tumor growth of hormone dependent prostate cancer LNCaP,84,57,71,
,,46,40,34,,5.80,5.19,8.00,7.05,7.05,,"c1csc(-c2nc3cc(COc4ccc(CCCCn5ccnc5)cc4)ccc3o2)c1 [Compound 80, 5-[4-[4-(1-imidazolyl)butyl]phenoxymethyl]-2-(2-thienyl)benzoxazole]",,< 4.60,,,,,,
